Reference: the NIST ThermoML archive (doi:10.1007/s10765-009-0602-6)

Experiment: molar heat capacity at constant volume; xn = mol fraction of the nth substance listed
Details: Fluid (supercritical or subcritical phases), isochoric heat capacity, x1 = 0.2607

N [ammonia] + O
Details | molar heat capacity at constant volume [J/K/mol]
602.99 K, Mass density=227.54 kg/m3 | 102.11
602.99 K, Mass density=230.31 kg/m3 | 103.53
602.99 K, Mass density=311.19 kg/m3 | 92.66
602.99 K, Mass density=342.18 kg/m3 | 84.9
603.01 K, Mass density=218.92 kg/m3 | 92.95
603.08 K, Mass density=205.58 kg/m3 | 71.27
603.08 K, Mass density=214.83 kg/m3 | 91.92
603.08 K, Mass density=218.92 kg/m3 | 93.46
603.08 K, Mass density=224.53 kg/m3 | 102.11
603.08 K, Mass density=227.54 kg/m3 | 94.83
603.08 K, Mass density=230.31 kg/m3 | 97.85
603.08 K, Mass density=311.19 kg/m3 | 88.26
603.1 K, Mass density=214.83 kg/m3 | 85.33
603.16 K, Mass density=205.58 kg/m3 | 70.95
603.16 K, Mass density=227.54 kg/m3 | 89.2
603.16 K, Mass density=230.31 kg/m3 | 92.7
603.16 K, Mass density=311.19 kg/m3 | 87
603.17 K, Mass density=224.53 kg/m3 | 98.9
603.17 K, Mass density=243.98 kg/m3 | 88.9
603.17 K, Mass density=260.02 kg/m3 | 88.9
603.25 K, Mass density=205.58 kg/m3 | 73.52
603.25 K, Mass density=224.53 kg/m3 | 95.33
603.25 K, Mass density=227.54 kg/m3 | 90.78
603.25 K, Mass density=311.19 kg/m3 | 89.86
603.26 K, Mass density=230.31 kg/m3 | 91.49
603.26 K, Mass density=243.98 kg/m3 | 86.61
603.26 K, Mass density=260.02 kg/m3 | 86.61
603.33 K, Mass density=224.53 kg/m3 | 94.9
603.34 K, Mass density=205.58 kg/m3 | 69.68
603.34 K, Mass density=243.98 kg/m3 | 87.69
603.34 K, Mass density=260.02 kg/m3 | 87.69
603.42 K, Mass density=205.58 kg/m3 | 67.87
603.42 K, Mass density=224.53 kg/m3 | 95.2
603.42 K, Mass density=311.19 kg/m3 | 88.62
603.43 K, Mass density=243.98 kg/m3 | 88.17
603.43 K, Mass density=260.02 kg/m3 | 88.17
603.51 K, Mass density=205.58 kg/m3 | 72.19
603.51 K, Mass density=243.98 kg/m3 | 85.63
603.51 K, Mass density=260.02 kg/m3 | 85.63
603.58 K, Mass density=243.98 kg/m3 | 83.27
603.58 K, Mass density=260.02 kg/m3 | 83.27
603.59 K, Mass density=205.58 kg/m3 | 69.01
603.59 K, Mass density=227.54 kg/m3 | 89.22
603.6 K, Mass density=214.83 kg/m3 | 85.67
603.67 K, Mass density=230.31 kg/m3 | 84.99
603.68 K, Mass density=214.83 kg/m3 | 84.57
603.68 K, Mass density=227.54 kg/m3 | 87.34
603.69 K, Mass density=243.98 kg/m3 | 85.13
603.69 K, Mass density=260.02 kg/m3 | 85.13
603.76 K, Mass density=227.54 kg/m3 | 89.27
603.77 K, Mass density=214.83 kg/m3 | 81.81
603.77 K, Mass density=218.92 kg/m3 | 89.86
603.78 K, Mass density=243.98 kg/m3 | 82.7
603.78 K, Mass density=260.02 kg/m3 | 82.7
603.85 K, Mass density=224.53 kg/m3 | 94
603.85 K, Mass density=227.54 kg/m3 | 85.53
603.86 K, Mass density=218.92 kg/m3 | 86.91
603.86 K, Mass density=260.02 kg/m3 | 83.32
603.92 K, Mass density=214.83 kg/m3 | 84.57
603.93 K, Mass density=227.54 kg/m3 | 84.41
603.94 K, Mass density=224.53 kg/m3 | 94.9
603.94 K, Mass density=230.31 kg/m3 | 86.75
604.02 K, Mass density=224.53 kg/m3 | 91.83
604.02 K, Mass density=227.54 kg/m3 | 87.55
604.04 K, Mass density=214.83 kg/m3 | 80.85
604.09 K, Mass density=214.83 kg/m3 | 82.56
604.11 K, Mass density=224.53 kg/m3 | 94.23
604.11 K, Mass density=227.54 kg/m3 | 83.91
604.12 K, Mass density=230.31 kg/m3 | 81.87
604.19 K, Mass density=224.53 kg/m3 | 93.25
604.19 K, Mass density=227.54 kg/m3 | 84.67
604.2 K, Mass density=214.83 kg/m3 | 82.1
604.28 K, Mass density=214.83 kg/m3 | 79.51
604.28 K, Mass density=224.53 kg/m3 | 89.96
604.28 K, Mass density=227.54 kg/m3 | 86.4
604.31 K, Mass density=230.31 kg/m3 | 80.09
604.36 K, Mass density=224.53 kg/m3 | 91.15
604.43 K, Mass density=230.31 kg/m3 | 85.06
604.45 K, Mass density=224.53 kg/m3 | 90.84
604.52 K, Mass density=230.31 kg/m3 | 82.6
605.13 K, Mass density=329 kg/m3 | 85.88
605.22 K, Mass density=329 kg/m3 | 88.22
